Experiments:
Assay in all cases: Z'-LYTE kinase panel
Type in all cases: biochemical
[1] = target: T1, MST1R (RON) (Homo sapiens, UniProt Q04912)
T1 construct: purchased ThermoFisher (SelectScreen, Z'-LYTE)
How it was run: (§1)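 Z′-LYTE, standard conditions; 10 µM test compound; values = % inhibition; broad panel of 225 kinases.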

[2] = target: T2, NEK6 (Homo sapiens, UniProt Q9HC98)
T2 construct: purchased ThermoFisher (SelectScreen, Z'-LYTE)
How it was run: as §1

[3] = target: T3, CSNK1G3 (CK1 gamma 3) (Homo sapiens, UniProt Q9Y6M4)
T3 construct: purchased ThermoFisher (SelectScreen, Z'-LYTE)
How it was run: as §1

[4] = target: T4, MUSK (Homo sapiens, UniProt O15146)
T4 construct: purchased ThermoFisher (SelectScreen, Z'-LYTE)
T4 sequence (O15146 24-869): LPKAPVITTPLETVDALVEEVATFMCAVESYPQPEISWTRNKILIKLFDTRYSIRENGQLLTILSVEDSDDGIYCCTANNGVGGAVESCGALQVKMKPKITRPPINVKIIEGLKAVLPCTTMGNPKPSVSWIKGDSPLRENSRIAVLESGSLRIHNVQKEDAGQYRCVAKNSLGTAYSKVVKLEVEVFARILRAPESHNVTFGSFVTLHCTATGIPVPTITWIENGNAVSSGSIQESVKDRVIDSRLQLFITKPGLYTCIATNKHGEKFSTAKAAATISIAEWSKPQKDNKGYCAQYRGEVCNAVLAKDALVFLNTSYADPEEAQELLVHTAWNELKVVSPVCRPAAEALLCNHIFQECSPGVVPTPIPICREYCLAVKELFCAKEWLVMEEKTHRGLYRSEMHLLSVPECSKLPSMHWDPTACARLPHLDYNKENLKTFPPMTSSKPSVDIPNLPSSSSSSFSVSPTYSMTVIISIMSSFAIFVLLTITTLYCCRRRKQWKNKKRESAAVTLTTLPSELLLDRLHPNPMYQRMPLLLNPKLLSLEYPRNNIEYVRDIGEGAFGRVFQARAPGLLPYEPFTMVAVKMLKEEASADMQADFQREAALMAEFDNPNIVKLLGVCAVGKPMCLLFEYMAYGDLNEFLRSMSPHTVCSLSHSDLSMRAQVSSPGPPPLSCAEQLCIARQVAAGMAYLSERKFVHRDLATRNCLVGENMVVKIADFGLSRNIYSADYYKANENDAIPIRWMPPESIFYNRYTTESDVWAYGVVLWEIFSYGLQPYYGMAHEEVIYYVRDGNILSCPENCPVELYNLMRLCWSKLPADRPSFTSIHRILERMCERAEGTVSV
How it was run: as §1

[5] = target: T5, MAPK12 (p38 gamma) (Homo sapiens, UniProt P53778)
T5 construct: purchased ThermoFisher (SelectScreen, Z'-LYTE)
T5 sequence (P53778 1-367): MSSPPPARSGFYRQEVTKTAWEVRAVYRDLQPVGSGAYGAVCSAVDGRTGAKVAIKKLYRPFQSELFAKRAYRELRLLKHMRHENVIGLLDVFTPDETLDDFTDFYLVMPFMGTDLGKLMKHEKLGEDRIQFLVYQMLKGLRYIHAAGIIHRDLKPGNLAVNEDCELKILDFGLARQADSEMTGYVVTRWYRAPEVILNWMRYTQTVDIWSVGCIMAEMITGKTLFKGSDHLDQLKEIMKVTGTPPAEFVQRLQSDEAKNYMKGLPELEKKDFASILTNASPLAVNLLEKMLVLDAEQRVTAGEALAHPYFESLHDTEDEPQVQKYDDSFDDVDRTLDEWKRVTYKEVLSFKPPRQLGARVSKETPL
How it was run: as §1

[6] = target: T6, CAMK1D (CaMKI delta) (Homo sapiens, UniProt Q8IU85)
T6 construct: purchased ThermoFisher (SelectScreen, Z'-LYTE)
How it was run: as §1

[7] = target: T7, MARK3 (Homo sapiens, UniProt P27448)
T7 construct: purchased ThermoFisher (SelectScreen, Z'-LYTE)
T7 sequence (P27448 whole entry): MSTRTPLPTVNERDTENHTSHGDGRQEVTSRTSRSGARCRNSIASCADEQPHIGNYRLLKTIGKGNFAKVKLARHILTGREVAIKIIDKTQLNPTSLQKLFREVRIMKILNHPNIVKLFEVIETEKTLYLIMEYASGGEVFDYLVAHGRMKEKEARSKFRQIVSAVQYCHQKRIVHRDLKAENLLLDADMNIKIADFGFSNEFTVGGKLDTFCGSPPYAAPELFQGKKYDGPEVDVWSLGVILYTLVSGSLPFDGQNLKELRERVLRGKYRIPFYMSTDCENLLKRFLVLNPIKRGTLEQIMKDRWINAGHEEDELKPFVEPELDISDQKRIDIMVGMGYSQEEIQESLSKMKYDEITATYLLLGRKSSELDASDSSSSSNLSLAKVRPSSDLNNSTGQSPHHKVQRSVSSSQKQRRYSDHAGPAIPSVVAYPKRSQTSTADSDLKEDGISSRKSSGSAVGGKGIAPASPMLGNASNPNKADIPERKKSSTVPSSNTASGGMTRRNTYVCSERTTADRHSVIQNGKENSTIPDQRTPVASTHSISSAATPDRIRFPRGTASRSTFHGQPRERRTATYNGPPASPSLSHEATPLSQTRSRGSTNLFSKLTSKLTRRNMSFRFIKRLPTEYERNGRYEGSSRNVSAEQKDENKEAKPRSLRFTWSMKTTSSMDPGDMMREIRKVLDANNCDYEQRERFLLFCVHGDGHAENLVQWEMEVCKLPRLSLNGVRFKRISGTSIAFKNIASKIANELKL
How it was run: as §1

[8] = target: T8, SYK (Homo sapiens, UniProt P43405); settings: 10 µM compound, ATP Km app
T8 construct: purchased ThermoFisher (SelectScreen, Z'-LYTE)
How it was run: as §1

[9] = target: T9, MAPKAPK3 (Homo sapiens, UniProt Q16644)
T9 construct: purchased ThermoFisher (SelectScreen, Z'-LYTE)
T9 sequence (Q16644 whole entry): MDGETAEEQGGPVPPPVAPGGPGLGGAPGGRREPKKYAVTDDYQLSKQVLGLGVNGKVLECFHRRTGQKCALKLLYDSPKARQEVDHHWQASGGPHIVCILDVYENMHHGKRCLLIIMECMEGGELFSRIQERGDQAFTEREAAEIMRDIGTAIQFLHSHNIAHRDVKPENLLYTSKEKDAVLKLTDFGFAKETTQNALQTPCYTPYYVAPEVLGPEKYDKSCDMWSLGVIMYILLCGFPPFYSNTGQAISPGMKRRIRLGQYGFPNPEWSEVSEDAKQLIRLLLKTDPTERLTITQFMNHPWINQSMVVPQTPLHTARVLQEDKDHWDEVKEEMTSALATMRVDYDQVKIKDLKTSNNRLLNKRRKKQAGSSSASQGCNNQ
How it was run: as §1

[10] = target: T10, DAPK3 (ZIPK) (Homo sapiens, UniProt O43293)
T10 construct: purchased ThermoFisher (SelectScreen, Z'-LYTE)
How it was run: as §1

[11] = target: T11, EPHA4 (Homo sapiens, UniProt P54764)
T11 construct: purchased ThermoFisher (SelectScreen, Z'-LYTE)
T11 sequence (P54764 20-986): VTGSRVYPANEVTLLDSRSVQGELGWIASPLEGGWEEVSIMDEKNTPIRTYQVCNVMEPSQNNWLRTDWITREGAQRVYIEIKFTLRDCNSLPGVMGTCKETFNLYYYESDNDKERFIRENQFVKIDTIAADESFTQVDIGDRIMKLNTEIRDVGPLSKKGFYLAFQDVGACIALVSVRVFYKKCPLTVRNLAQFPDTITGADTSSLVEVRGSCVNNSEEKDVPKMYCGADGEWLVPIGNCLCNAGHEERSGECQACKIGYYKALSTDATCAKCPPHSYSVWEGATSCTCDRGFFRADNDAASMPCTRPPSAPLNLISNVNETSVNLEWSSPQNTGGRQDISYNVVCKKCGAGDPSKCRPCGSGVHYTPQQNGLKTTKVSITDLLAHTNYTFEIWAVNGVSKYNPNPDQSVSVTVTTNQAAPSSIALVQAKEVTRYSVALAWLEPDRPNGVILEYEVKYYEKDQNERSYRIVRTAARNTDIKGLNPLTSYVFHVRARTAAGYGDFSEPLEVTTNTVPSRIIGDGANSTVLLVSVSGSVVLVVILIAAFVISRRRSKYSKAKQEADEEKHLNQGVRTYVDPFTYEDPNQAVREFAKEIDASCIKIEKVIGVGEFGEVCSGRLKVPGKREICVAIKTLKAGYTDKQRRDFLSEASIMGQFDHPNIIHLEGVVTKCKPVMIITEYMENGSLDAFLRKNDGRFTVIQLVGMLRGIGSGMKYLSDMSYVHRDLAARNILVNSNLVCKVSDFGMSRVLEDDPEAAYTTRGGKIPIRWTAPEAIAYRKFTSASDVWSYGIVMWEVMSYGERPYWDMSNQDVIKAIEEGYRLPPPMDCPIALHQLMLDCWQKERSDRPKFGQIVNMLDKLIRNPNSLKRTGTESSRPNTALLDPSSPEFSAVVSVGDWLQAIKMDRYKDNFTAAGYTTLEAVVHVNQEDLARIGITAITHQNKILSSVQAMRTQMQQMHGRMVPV
How it was run: as §1

[12] = target: T12, MELK (Homo sapiens, UniProt Q14680)
T12 construct: purchased ThermoFisher (SelectScreen, Z'-LYTE)
T12 sequence (Q14680 whole entry): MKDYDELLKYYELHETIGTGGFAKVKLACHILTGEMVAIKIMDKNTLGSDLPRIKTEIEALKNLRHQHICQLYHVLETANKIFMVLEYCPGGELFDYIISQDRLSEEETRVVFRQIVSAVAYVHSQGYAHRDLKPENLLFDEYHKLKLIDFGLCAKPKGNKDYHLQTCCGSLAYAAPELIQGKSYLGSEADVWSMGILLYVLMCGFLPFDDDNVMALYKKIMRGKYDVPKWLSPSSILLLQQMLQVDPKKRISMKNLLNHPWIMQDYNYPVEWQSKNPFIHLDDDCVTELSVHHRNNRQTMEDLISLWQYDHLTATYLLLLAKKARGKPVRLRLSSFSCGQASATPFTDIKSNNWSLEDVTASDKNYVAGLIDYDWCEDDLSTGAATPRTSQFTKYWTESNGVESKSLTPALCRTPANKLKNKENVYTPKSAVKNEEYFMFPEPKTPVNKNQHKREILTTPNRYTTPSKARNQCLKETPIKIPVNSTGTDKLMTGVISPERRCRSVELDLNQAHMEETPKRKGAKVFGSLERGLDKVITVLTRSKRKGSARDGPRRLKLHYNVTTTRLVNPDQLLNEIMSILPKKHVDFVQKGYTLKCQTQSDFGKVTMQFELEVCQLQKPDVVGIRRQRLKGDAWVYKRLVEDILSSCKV
How it was run: as §1

[13] = target: T13, PAK6 (Homo sapiens, UniProt Q9NQU5)
T13 construct: purchased ThermoFisher (SelectScreen, Z'-LYTE)
T13 sequence (Q9NQU5 whole entry): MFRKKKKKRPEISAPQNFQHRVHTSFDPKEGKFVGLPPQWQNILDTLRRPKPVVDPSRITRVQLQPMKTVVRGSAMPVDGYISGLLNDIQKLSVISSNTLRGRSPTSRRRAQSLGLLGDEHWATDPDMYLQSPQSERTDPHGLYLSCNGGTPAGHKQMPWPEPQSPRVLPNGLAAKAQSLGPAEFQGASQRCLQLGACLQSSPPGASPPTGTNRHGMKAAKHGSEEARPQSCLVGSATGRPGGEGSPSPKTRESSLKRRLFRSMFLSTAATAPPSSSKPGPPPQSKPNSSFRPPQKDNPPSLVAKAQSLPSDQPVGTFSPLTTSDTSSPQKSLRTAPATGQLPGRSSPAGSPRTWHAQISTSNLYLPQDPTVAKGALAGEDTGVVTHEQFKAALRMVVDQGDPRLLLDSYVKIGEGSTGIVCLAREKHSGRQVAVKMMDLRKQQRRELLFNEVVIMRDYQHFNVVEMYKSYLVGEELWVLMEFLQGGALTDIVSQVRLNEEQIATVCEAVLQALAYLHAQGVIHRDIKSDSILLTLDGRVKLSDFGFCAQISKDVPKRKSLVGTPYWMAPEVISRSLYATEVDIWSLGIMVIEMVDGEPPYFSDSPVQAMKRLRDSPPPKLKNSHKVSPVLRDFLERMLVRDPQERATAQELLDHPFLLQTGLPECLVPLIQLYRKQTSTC
How it was run: as §1

[14] = target: T14, AURKB (Aurora B) (Homo sapiens, UniProt Q96GD4)
T14 construct: purchased ThermoFisher (SelectScreen, Z'-LYTE)
T14 sequence (Q96GD4 whole entry): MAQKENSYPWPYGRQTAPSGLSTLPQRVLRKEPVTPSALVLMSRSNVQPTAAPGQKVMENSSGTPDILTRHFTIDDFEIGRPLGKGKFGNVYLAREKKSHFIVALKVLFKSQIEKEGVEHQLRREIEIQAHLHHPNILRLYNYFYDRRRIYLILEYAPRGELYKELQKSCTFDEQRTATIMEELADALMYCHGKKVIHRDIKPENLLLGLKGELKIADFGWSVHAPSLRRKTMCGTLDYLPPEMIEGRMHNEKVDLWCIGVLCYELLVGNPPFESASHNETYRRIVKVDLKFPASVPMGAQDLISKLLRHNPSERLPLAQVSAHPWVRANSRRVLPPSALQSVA
How it was run: as §1

[15] = target: T15, IGF1R (Homo sapiens, UniProt P08069)
T15 construct: purchased ThermoFisher (SelectScreen, Z'-LYTE)
How it was run: as §1

[16] = target: T16, CDK5/p25 (Homo sapiens, UniProt Q00535)
T16 construct: purchased ThermoFisher (SelectScreen, Z'-LYTE)
How it was run: as §1

[17] = target: T17, MAPK13 (p38 delta) (Homo sapiens, UniProt O15264)
T17 construct: purchased ThermoFisher (SelectScreen, Z'-LYTE)
T17 sequence (O15264 1-365): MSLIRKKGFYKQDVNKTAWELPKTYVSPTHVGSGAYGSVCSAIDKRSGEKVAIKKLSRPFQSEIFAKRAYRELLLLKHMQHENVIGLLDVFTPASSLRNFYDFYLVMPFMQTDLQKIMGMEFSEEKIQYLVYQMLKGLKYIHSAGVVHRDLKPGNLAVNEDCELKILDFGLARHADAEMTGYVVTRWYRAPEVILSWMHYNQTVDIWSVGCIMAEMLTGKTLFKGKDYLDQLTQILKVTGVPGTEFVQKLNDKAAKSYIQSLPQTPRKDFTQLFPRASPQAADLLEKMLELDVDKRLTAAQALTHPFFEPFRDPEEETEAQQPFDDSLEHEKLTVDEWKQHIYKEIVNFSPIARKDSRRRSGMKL
How it was run: as §1

[18] = target: T18, PKN1 (PRK1) (Homo sapiens, UniProt Q16512)
T18 construct: purchased ThermoFisher (SelectScreen, Z'-LYTE)
T18 sequence (Q16512 whole entry): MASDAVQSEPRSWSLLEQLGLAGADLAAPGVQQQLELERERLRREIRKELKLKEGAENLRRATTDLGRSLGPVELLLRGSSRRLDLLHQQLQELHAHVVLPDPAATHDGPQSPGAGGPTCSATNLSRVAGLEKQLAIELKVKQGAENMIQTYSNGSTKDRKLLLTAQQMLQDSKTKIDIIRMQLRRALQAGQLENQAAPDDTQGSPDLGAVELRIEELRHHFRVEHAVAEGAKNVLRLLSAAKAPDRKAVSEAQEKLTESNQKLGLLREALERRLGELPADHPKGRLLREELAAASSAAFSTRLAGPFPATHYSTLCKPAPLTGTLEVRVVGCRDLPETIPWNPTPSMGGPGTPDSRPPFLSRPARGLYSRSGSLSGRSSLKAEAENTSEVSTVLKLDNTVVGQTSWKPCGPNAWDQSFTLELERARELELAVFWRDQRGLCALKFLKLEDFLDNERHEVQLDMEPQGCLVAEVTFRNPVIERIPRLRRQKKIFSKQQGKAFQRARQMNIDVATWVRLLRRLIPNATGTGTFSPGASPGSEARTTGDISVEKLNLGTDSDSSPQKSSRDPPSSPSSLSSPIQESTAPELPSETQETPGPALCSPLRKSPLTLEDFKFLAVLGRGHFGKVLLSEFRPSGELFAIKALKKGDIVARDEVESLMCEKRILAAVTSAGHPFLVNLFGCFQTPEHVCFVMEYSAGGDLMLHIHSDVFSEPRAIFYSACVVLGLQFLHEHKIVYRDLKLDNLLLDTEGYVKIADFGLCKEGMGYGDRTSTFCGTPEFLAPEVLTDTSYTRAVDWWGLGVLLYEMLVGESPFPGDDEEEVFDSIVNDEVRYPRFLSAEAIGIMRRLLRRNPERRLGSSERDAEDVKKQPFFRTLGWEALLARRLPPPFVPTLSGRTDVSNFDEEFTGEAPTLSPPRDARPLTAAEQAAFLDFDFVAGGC
How it was run: as §1

T2 sequence (Q9HC98 whole entry): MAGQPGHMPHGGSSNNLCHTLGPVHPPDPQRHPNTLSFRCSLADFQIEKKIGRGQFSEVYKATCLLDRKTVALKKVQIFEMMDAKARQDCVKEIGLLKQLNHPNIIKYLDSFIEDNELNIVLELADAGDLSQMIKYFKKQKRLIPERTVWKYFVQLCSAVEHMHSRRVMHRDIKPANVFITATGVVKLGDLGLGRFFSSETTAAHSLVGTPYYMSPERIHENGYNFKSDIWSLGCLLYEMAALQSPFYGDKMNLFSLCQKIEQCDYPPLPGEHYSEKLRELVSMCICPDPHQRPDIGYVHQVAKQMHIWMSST

| Compound | inhibition at 10 µM [1] | inhibition at 10 µM [2] | inhibition at 10 µM [3] | inhibition at 10 µM [4] | inhibition at 10 µM [5] | inhibition at 10 µM [6] | inhibition at 10 µM [7] | inhibition at 10 µM [8] | inhibition at 10 µM [9] | inhibition at 10 µM [10] | inhibition at 10 µM [11] | inhibition at 10 µM [12] | inhibition at 10 µM [13] | inhibition at 10 µM [14] | inhibition at 10 µM [15] | inhibition at 10 µM [16] | inhibition at 10 µM [17] | inhibition at 10 µM [18] | further results |
| --- | --- | --- | --- | --- | --- | --- | --- | --- | --- | --- | --- | --- | --- | --- | --- | --- | --- | --- | --- |
| XMD8-92 [Compound 2, reference compound] |  |  |  |  |  |  |  |  |  |  |  |  |  |  |  |  |  |  | MST1R (RON) % Inhibition ([1]; 10 µM compound, ATP Km app): 37%; NEK6 % Inhibition ([2]; 10 µM compound, ATP Km app): 68%; CSNK1G3 (CK1 gamma 3) % Inhibition ([3]; 10 µM compound, ATP Km app): 31%; MUSK % Inhibition ([4]; 10 µM compound, ATP Km app): 21%; MAPK12 (p38 gamma) % Inhibition ([5]; 10 µM compound, ATP Km app): 3.54%; CAMK1D (CaMKI delta) % Inhibition ([6]; 10 µM compound, ATP Km app): 19%; MARK3 % Inhibition ([7]; 10 µM compound, ATP Km app): 28%; SYK % Inhibition [8]: 22%; MAPKAPK3 % Inhibition ([9]; 10 µM compound, ATP Km app): 96%; DAPK3 (ZIPK) % Inhibition ([10]; 10 µM compound, ATP Km app): -0.894%; EPHA4 % Inhibition ([11]; 10 µM compound, ATP Km app): 19%; MELK % Inhibition ([12]; 10 µM compound, ATP Km app): 80%; PAK6 % Inhibition ([13]; 10 µM compound, ATP Km app): 33%; AURKB (Aurora B) % Inhibition ([14]; 10 µM compound, ATP Km app): 39%; IGF1R % Inhibition ([15]; 10 µM compound, ATP Km app): -1.87%; CDK5/p25 % Inhibition ([16]; 10 µM compound, ATP Km app): 38%; MAPK13 (p38 delta) % Inhibition ([17]; 10 µM compound, ATP Km app): 1.54%; PKN1 (PRK1) % Inhibition ([18]; 10 µM compound, ATP Km app): 1.26% |
| Cc1ncc(-c2nc(Nc3ccc(C(=O)NCCN4CCCCC4)cc3)ncc2F)n1C(C)C [Compound 3] | 67% | 12% | 89% | 92% | 46% | 59% | 84% | 90% | 18% | 78% | 55% | 100% | 27% | 88% | 67% | 99% | 65% | 62% |  |
| Cc1cc(Nc2nc(N)nn2C(=O)NC(C)C)ccc1Cl [Compound 5] | 1.17% | 3% | 17% | 22% | 1.08% | 0.357% | 25% | > 80% | -5% | -7.41% | 10% | 4.73% | 14% | 68% | -0.717% | 77% | -0.07% | -3.54% | SYK % Inhibition ([8]; listed as SN1109056190, 10 µM): 85% |

From article PMC4854315, “Discovery of a novel allosteric inhibitor-binding site in ERK5: comparison with the canonical kinase hinge ATP-binding site” (Acta Crystallographica. Section D, Structural Biology, 2016)
